Experimental findings from US11952328B2, “Selective ship inhibitors for treating disease” (THE RESEARCH FOUNDATION FOR THE STATE UNIVERSITY OF NEW YORK, priority 2018, dated 2024) are described below.

The subject of one assay is RMA-Rael cells. The experiment in a line: Overall survival of RMA-Rael tumor challenged hosts (Kaplan-Meier). The format is in vivo, mice. As for the experimental part:
FIGS. 6A-6I show the survival of tumor bearing mice treated with a SHIP inhibitor. […] Hosts were treated on the day of tumor challenge and the following day as in FIG. 1. The 2-day treatment course was repeated each week for the duration of survival. […] Mice received either NK cell depleting, anti-NK1.1 antibody (PK136), or isotype control antibody prior to tumor challenge (5×10^5 RMA-Rael). The hosts received SHIP inhibitor two consecutive days each week until death. […] The hosts were treated on the day of tumor challenge and the following day as in FIG. 1. The 2-day treatment course was repeated each week for the duration of survival.
The most clinically relevant endpoint in any cancer therapy study is not a measured decrease in tumor burden, but instead, a significant increase in survival promoted by the treatment.
In order to further define 3AC′s capacity to control malignancy through immunomodulatory effects the capacity of 3AC to promote resistance of NSG, TcRa^−/− and NK cell depleted hosts to RMA-Rael tumor challenge was examined. As before, mice received treatment with 3AC or vehicle for two consecutive days each week followed by a five-day cessation of treatment to prevent disarming and/or exhaustion. This treatment strategy was continued indefinitely and survival was monitored (FIG. 6A). To confirm that, in addition to the chemotherapeutic effect documented in FIG. 5, 3AC-induced enhanced-NK and -T cell activity is important for the survival benefit following tumor challenge, NSG mice (mice deficient of all lymphocyte lineages) were challenged.
To determine if T cells are required for the 3AC-mediated survival benefit, the same expirement using TcRa^−/− hosts that lack a TcR-ab^+ T cell compartment was repeated. […] To directly test the requirement for an intact NK cell compartment for 3AC-mediated increased survival after tumor challenge, the experiment as described in FIG. 6A were repeated challenging C57BL/6 hosts that were first depleted of
NK cells. Here, prior to tumor challenge, hosts were injected with either NK cell depleting anti-NK1.1 antibody (C57BL/6-DNK) or with antibody isotype control (C57BL/6-iso) (FIG. 6B).
The SHIP1 inhibitor 3AC was then tested in a genetic model in which the molecular target, SHIP1, was absent in a key target population of T cells, which are required for protection in the RMA-Rael lymphoma challenge model. […] Thus, SHIP inhibitor protection after tumor challenge is lost when the T cell compartment lacks the molecular target (SHIP1) in T cells.
There are two paralogs of SHIP: SHIP1 which is expressed in a limited range of tissues including hematopoietic cells, and SHIP2 which is expressed by a wide array of cell types. To determine if SHIP2 may also play a role in host defense against malignancy as described above tumor bearing mice were treated with small-molecule inhibitors against SHIP2 as well. […] Stem Cells. (2015); 33: 848-858; Hoekstra, E. et al., Lipid phosphatase SHIP2 functions as oncogene in colorectal cancer by regulating PKB activation. Oncotarget. (2016) 7: 73525-73540). Like 3AC, pan-SHIP1/2 inhibitors such as K118 are also cytotoxic for RMA-Rael cells in vitro. The pan SHIP1/2 inhibitory compounds K118 and K149 were compared to the SHIP1 selective compound 3AC.
Simultaneous inhibition of both SHIP1and SHIP2 may be deleterious to the immune response promoted by 3AC. […] In the study, the SHIP1 selective inhibitor 3AC that provides for protection after RMA-Rael challenge was simulataneously co-administered.

In another assay the test system is MC-38. The experiment in a line: MC-38 viability following in vitro treatment. The format is cell-based, mice. Particulars: in vitro 24 h; all concentrations N.S. vs solvent only. The procedure: FIG. 7A and FIG. 7B show CT26 (FIG. 7A) and MC-38 (FIG. 7B) viability following in vitro treatment with 3AC for 24 h at indicated doses. Relative viability is expressed as frequency compared to solvent only treated cells. Kill curve summarizes pooled data from three independent experiments using six replicate wells/concentration with mean±SEM indicated. BALB/C mice were challenged with subcutaneous injection of CT26 colon carcinoma cells in the right flank. Mice were treated with either 2 consecutive days of 3AC or vehicle control each week as in FIG. 4A. Tumor size at […] 28 days (FIG. 7C), and tumor weight on day 28 determined after dissection of tumor (FIG. 7E). […] C57BL/6 mice were challenged with subcutaneous injection of MC-38 colon carcinoma cells in the right flank. Mice were treated with either 2 consecutive days of SHIP inhibitor or vehicle control each week as in FIG. 4A. Tumor size at 14, 21 and 25 days (FIG. 7D), and tumor weight (FIG. 7F) on day 25 were determined after dissection of tumor. […] FIG. 7A (n=18 per group. One-way ANOVA with Dunnett's multiple comparisons. 0 μM vs. 20 μM Adjusted p value=0.0463. All other concentrations of SHIP inhibitor compared with solvent only N.S.). FIG. 7B (n=18 per group. One-way ANOVA with Dunnett's multiple comparisons. All concentrations of SHIP inhibitor compared with solvent only N.S.). […]

On to `CC(C)CCC[C@@H](C)[C@H]1CC[C@H]2[C@@H]3CCC4C[C@H](N)CC[C@]4(C)[C@H]3CC[C@]12C` (stereo partly drawn) [Compound 3AC, 3-α-aminocholestane], for which the overall survival result in the assay on RMA-Rael cells (3AC-treated NK cell depleted C57BL/6 (anti-NK1.1) vs 3AC-treated isotype control hosts) is on record as “significantly compromised survival”; with RMA-Rael cells (C57BL/6 hosts, 5×10^5 RMA-Rael, two consecutive days each week, five-day cessation, vs vehicle) it was “significantly increased survival”; in the assay with RMA-Rael cells (CD4CreSHIP flox/flox mice treated with 3AC vs vehicle-treated SHIP+/flox mice) it was “comparable survival”; in the assay with RMA-Rael cells (SHIP flox/flox mice treated with 3AC vs 3AC-treated CD4CreSHIP flox/flox and vehicle-treated SHIP+/flox) it was “enhanced survival”; with RMA-Rael cells (TcRa−/− hosts, pulsatile dosing, compared to 3AC treatment of C57BL/6 hosts), “did not prolong survival”. Moreover, the long-term survival entry with RMA-Rael cells (C57BL/6 hosts, 1×10^5 RMA-Rael, FIG. 6H) is reported as “long-term survival in a subset of hosts”. Moreover, the “overall survival (protection)” value in the assay on RMA-Rael cells (C57BL/6 hosts, 1×10^5 RMA-Rael, FIG. 6H, vs vehicle) was “extended survival”. Besides, in the assay on RMA-Rael cells (NSG mice, pulsatile dosing, vs vehicle-treated NSG), the median survival result is on record as “very modest increase”. For the same molecule, the long term survival entry in the assay on RMA-Rael cells (subpopulation of 3AC treated C57BL/6 mice, pulsatile dosing, tumor uniformly lethal in vehicle mice) is reported as “durable, long term survival without any evidence of tumor burden”. In addition, the “MC-38 viability (direct killing)” value in the assay on MC-38 is “resistant to direct killing”.
